Results reported in patent US7056941B1 (priority 1997, dated 2006).

melting point: 107 to 109 °C
SMILES: Cc1nn(C)c(=O)n1-c1ccccc1COc1ccn(-c2ccc(Cl)cc2)n1
